≈ marks a conversion by molar mass, not a printed value. Square brackets hold non-standard residues; d marks the D form. Peptide text beside a SMILES is read from it. Orn = NCCC[C@H](N)C(=O)O
Key:
[1] = test system: K. pneumonia 6069; format: cell-based, Klebsiella pneumoniae; settings: 24 h
Method: (§1) Assays were performed by Trideum Biosciences (Frederick, MD, USA). Isolates were thawed from −80 °C storage and sub-cultured on trypticase soy agar plates at 37 °C prior to experimentation. A single colony was aseptically picked from the agar plate and released in 30 mL trypticase soy broth and incubated overnight at 37 °C incubator. Following which the bacterial culture was diluted to approximately 10^6 colony forming units (CFU)/mL using 2X cation adjusted Mueller–Hinton broth and added to the dAMP solutions (0, 2, 4, 8, 16, 32, 64, and 128 μg/mL) which had been formulated in water at 256 μg/mL and then serially diluted in media on 96-well pates. For fungal evaluation, potato dextrose broth and potato dextrose agar plates were used. The treated cultures were then incubated for 24 h at 37 °C and pathogen growth was measured by absorbance at 600 nm. Four replicas were included for each dAMP concentration. Each MIC was assigned to the lowest test agent concentration resulting in at least three out of four wells showing no growth based on an optical density (OD) reading of <0.1.

[2] = test system: K. pneumonia ATCC 10031; format: cell-based, Klebsiella pneumoniae; settings: ATCC 10031, 24 h
Method: as §1

[3] = test system: A. baumannii 6043; format: cell-based, Acinetobacter baumannii; settings: 6043, 24 h
Method: as §1

[4] = test system: A. baumannii 6838; format: cell-based, Acinetobacter baumannii; settings: 6838, 24 h
Method: as §1

[5] = test system: A. baumannii ATCC 17978; format: cell-based, Acinetobacter baumannii; settings: ATCC 17978, 24 h
Method: as §1

[6] = test system: MRSA ATCC 33592; format: cell-based, Staphylococcus aureus; settings: ATCC 33592, 24 h
Method: as §1

[7] = test system: MRSA 6381; format: cell-based, Staphylococcus aureus; settings: 6381, 24 h
Method: as §1

[8] = test system: S. aureus B-767; format: cell-based, Staphylococcus aureus; settings: B-767, 24 h
Method: as §1

[9] = test system: MRSA 6313; format: cell-based, Staphylococcus aureus; settings: 6313, 24 h
Method: as §1

[10] = test system: S. aureus 6061; format: cell-based, Staphylococcus aureus; settings: 6061, 24 h
Method: as §1

[11] = test system: P. aeruginosa 19660 (Xen5 luciferase); experiment: Bioluminescent time-kill assay; format: cell-based, Pseudomonas aeruginosa; settings: 8 μg/mL; RP553 at 60 min; bioluminescence
From the text: (§2) Fungal and bacterial strains were obtained from American Type Culture Collection (ATCC, Manassas, VA, USA) or the clinical isolate collection at Trideum Biosciences (Frederick, MD, USA) and are presented in Table 1 and Table 2, respectively. Bioluminescence strains of P. aeruginosa 19660, transfected with the Xen5 luciferase gene, and S. aureus ATCC R 49525TM (Wright), transfected with the Xen36 luciferase gene, were obtained from Perkin Elmer (Waltham, MA, USA).
(§3) Real-time killing of bacterial cells, P. aeruginosa or S. aureus, and mammalian cytotoxicity to assess dAMP off-target toxicity was evaluated using bioluminescent cells. The L929 fibroblast cells (ATCC, Manassas, VA, USA) were made bioluminescent by transfection with a luciferase gene. Cells (1 × 10^4 cells, 100 μL) were plated in 96-well black-walled plates and the candidate dAMPs were 2-fold serially diluted from specified concentrations in growth medium supplemented with 150 μg/mL D-luciferin. Each concentration was performed in triplicate, with the final volume being 200 μL. Imaging was performed at select times after the addition of the dAMP, and compared to concurrently run vehicle-control, using an IVIS Lumina imaging system (Caliper Life Sciences, Inc., Hopkinton, MA, USA). For imaging, the 96-well plate was positioned on the stage (12.5-cm field of view), with an open emission filter, binning of 4, and f-stop 1 and a 1-min exposure time. Monitoring bioluminescence allows assessment of the kinetics of cellular viability as there is a tight correlation between the bioluminescent signal and cell viability. Data analysis was performed using the Living Image software program (version 4.3, Caliper Life Sciences, Inc., Hopkinton, MA, USA).
(§4) Figure 3 RP553, RP556, RP557 rapidly destroy P. aeruginosa and S. aureus. The bioluminescence of viable P. aeruginosa 19,660 and S. aureus 49,525 cells was quantitated in real time with an IVIS Lumina bioimaging system. Data represent the mean ± SE of triplicate replicates from two independent experiments. For some points, the error bars are shorter than the height of the symbols.

[12] = test system: P. aeruginosa ATCC 27853; format: cell-based, Pseudomonas aeruginosa; settings: ATCC 27853, 24 h
Method: as §1

[13] = test system: P. aeruginosa 6186; format: cell-based, Pseudomonas aeruginosa; settings: 6186, 24 h
Method: as §1

[14] = test system: P. aeruginosa ATCC 19660; format: cell-based, Pseudomonas aeruginosa; settings: ATCC 19660, 24 h
Method: as §1

[15] = test system: S. aureus 49525 (Xen36 luciferase); format: cell-based, Staphylococcus aureus; settings: 8 μg/mL, 60 min incubation, bioluminescence, triplicates from two independent experiments
From the text: as §2, §3, §4

[16] = test system: Absidia corymbifera NRRL 6251; format: cell-based; settings: NRRL 6251, 24 h
Method: as §1

[17] = test system: Aspergillus flavus MYA-3651; format: cell-based; settings: 24 h
Method: as §1

[18] = test system: Aspergillus flavus MYA-1004; format: cell-based; settings: 24 h
Method: as §1

[19] = test system: Candida krusei Y-27825; format: cell-based; settings: Y-27825, 24 h
Method: as §1

[20] = test system: Fusarium solani NRRL 28548; format: cell-based; settings: NRRL 28548, 24 h
Method: as §1

[21] = test system: Candida krusei Y-27803; format: cell-based; settings: Y-27803, 24 h
Method: as §1

[22] = test system: Aspergillus fumigatus 9651; format: cell-based; settings: 9651, 24 h
Method: as §1

[23] = test system: E. cloacae 6053; format: cell-based; settings: 6053, 24 h
Method: as §1

[24] = test system: Mucor circinelloides NRRL 3631; format: cell-based; settings: NRRL 3631, 24 h
Method: as §1

[25] = test system: Candida albicans Y-6359; format: cell-based; settings: Y-6359, 24 h
Method: as §1

[26] = test system: E. cloacae 6054; format: cell-based; settings: 6054, 24 h
Method: as §1

[27] = test system: Candida parapsilosis Y-1761; format: cell-based; settings: Y-1761, 24 h
Method: as §1

[28] = test system: Candida parapsilosis Y-1763; format: cell-based; settings: Y-1763, 24 h
Method: as §1

[29] = test system: S. epidermis ATCC 51625; format: cell-based; settings: ATCC 51625, 24 h
Method: as §1

[30] = test system: Candida albicans Y-326; format: cell-based; settings: Y-326, 24 h
Method: as §1

[31] = test system: Aspergillus fumigatus 9648; format: cell-based; settings: 9648, 24 h
Method: as §1

[32] = test system: vulvovaginal candidiasis infection; settings: rodent vulvovaginal candidiasis, after three days of daily treatment; cited from earlier work
From the text: The dAMPs RP504, RP554 and RP557 were thus tested for their ability to treat a rodent vulvovaginal candidiasis infection. […] A daily dose with a 2% concentration lowered the CFU/sample by more than 4 logs compared to the con ...

SMILES	MIC against K. pneumonia 6069 [1] [mg/L]	MIC against K. pneumonia ATCC 10031 [2] [mg/L]	MIC against A. baumannii 6043 [3] [mg/L]	MIC against A. baumannii 6838 [4] [mg/L]	MIC against A. baumannii ATCC 17978 [5] [mg/L]	MIC against MRSA ATCC 33592 [6] [mg/L]	MIC against MRSA 6381 [7] [mg/L]	MIC against S. aureus B-767 [8] [mg/L]	MIC against MRSA 6313 [9] [mg/L]	MIC against S. aureus 6061 [10] [mg/L]	MIC against P. aeruginosa ATCC 27853 [12] [mg/L]	MIC against P. aeruginosa 6186 [13] [mg/L]	MIC against P. aeruginosa ATCC 19660 [14] [mg/L]	MIC against Absidia corymbifera NRRL 6251 [16] [mg/L]	MIC against Aspergillus flavus MYA-3651 [17] [mg/L]	MIC against Aspergillus flavus MYA-1004 [18] [mg/L]	MIC against Candida krusei Y-27825 [19] [mg/L]	MIC against Fusarium solani NRRL 28548 [20] [mg/L]	MIC against Candida krusei Y-27803 [21] [mg/L]	MIC against Aspergillus fumigatus 9651 [22] [mg/L]	other results
CC[C@H](C)[C@H](NC(=O)[C@H](CCCCN)NC(=O)[C@H](CC(C)C)NC(=O)[C@H](CCCN)NC(=O)[C@H](CC(C)C)NC(=O)[C@H](CCCNC(=N)N)NC(=O)[C@H](C)NC(=O)[C@H](CCCNC(=N)N)NC(=O)[C@@H](NC(=O)[C@H](CCCN)NC(=O)[C@H](Cc1ccccc1)NC(=O)[C@H](CCCNC(=N)N)NC(=O)[C@H](C)NC(=O)[C@H](CCCCN)NC(=O)[C@@H](NC(=O)[C@H](CCCN)NC(=O)[C@@H](N)Cc1ccccc1)[C@@H](C)CC)C(C)C)C(N)=O [RP553] (H-F[Orn]IKARF[Orn]VRARL[Orn]LKI-NH2)	4 (≈ 1.93 µM)	4 (≈ 1.93 µM)	16 (≈ 7.72 µM)	8 (≈ 3.86 µM)	4 (≈ 1.93 µM)	4 (≈ 1.93 µM)	8 (≈ 3.86 µM)	4 (≈ 1.93 µM)	4 (≈ 1.93 µM)	8 (≈ 3.86 µM)	4 (≈ 1.93 µM)	8 (≈ 3.86 µM)	8 (≈ 3.86 µM)	2 (≈ 0.965 µM)	128 (≈ 61.8 µM)	128 (≈ 61.8 µM)	32 (≈ 15.4 µM)	2 (≈ 0.965 µM)	32 (≈ 15.4 µM)	64 (≈ 30.9 µM)	P. aeruginosa killing (in words) [11]: nearly all; S. aureus killing [15]: 14%; MIC against E. cloacae 6053 [23]: 4 mg/L (≈ 1.93 µM); MIC against Mucor circinelloides NRRL 3631 [24]: 64 mg/L (≈ 30.9 µM); MIC against Candida albicans Y-6359 [25]: 64 mg/L (≈ 30.9 µM); MIC against E. cloacae 6054 [26]: 2 mg/L (≈ 0.965 µM); MIC against Candida parapsilosis Y-1761 [27]: 64 mg/L (≈ 30.9 µM); MIC against Candida parapsilosis Y-1763 [28]: 32 mg/L (≈ 15.4 µM); MIC against S. epidermis ATCC 51625 [29]: 2 mg/L (≈ 0.965 µM); MIC against Candida albicans Y-326 [30]: 64 mg/L (≈ 30.9 µM); MIC against Aspergillus fumigatus 9648 [31]: 128 mg/L (≈ 61.8 µM)
CC[C@H](C)[C@H](NC(=O)[C@H](CCCN)NC(=O)[C@H](C)NC(=O)[C@H](CCCN)NC(=O)[C@H](CC(C)C)NC(=O)[C@H](CCCN)NC(=O)[C@@H](NC(=O)[C@H](CCCN)NC(=O)[C@@H](NC(=O)[C@H](CCCN)NC(=O)[C@H](C)NC(=O)[C@H](CCCN)NC(=O)[C@H](CC(C)C)NC(=O)[C@H](CCCN)NC(=O)[C@@H](N)Cc1ccccc1)[C@@H](C)CC)C(C)C)C(=O)N[C@@H](CCCN)C(=O)N[C@@H](CC(C)C)C(N)=O [RP554] (H-F[Orn]L[Orn]A[Orn]I[Orn]V[Orn]L[Orn]A[Orn]I[Orn]L-NH2)	16 (≈ 8.49 µM)	8 (≈ 4.25 µM)	8 (≈ 4.25 µM)	4 (≈ 2.12 µM)	4 (≈ 2.12 µM)	32 (≈ 17 µM)	32 (≈ 17 µM)	4 (≈ 2.12 µM)	32 (≈ 17 µM)	32 (≈ 17 µM)	4 (≈ 2.12 µM)	8 (≈ 4.25 µM)	8 (≈ 4.25 µM)	4 (≈ 2.12 µM)	32 (≈ 17 µM)	64 (≈ 34 µM)	16 (≈ 8.49 µM)	2 (≈ 1.06 µM)	16 (≈ 8.49 µM)	32 (≈ 17 µM)	reduction of CFU/tissue sample [32]: ≥ 2.5 logs; MIC against E. cloacae 6053 [23]: 4 mg/L (≈ 2.12 µM); MIC against Mucor circinelloides NRRL 3631 [24]: 32 mg/L (≈ 17 µM); MIC against Candida albicans Y-6359 [25]: 32 mg/L (≈ 17 µM); MIC against E. cloacae 6054 [26]: 2 mg/L (≈ 1.06 µM); MIC against Candida parapsilosis Y-1761 [27]: 16 mg/L (≈ 8.49 µM); MIC against Candida parapsilosis Y-1763 [28]: 8 mg/L (≈ 4.25 µM); MIC against S. epidermis ATCC 51625 [29]: 2 mg/L (≈ 1.06 µM); MIC against Candida albicans Y-326 [30]: 32 mg/L (≈ 17 µM); MIC against Aspergillus fumigatus 9648 [31]: 64 mg/L (≈ 34 µM)
